Test results reported in ChEMBL document CHEMBL6087458, “The Discovery of a Novel AXL/Triple Angiokinase Inhibitor Based on 6-Chloro-Substituted Indolinone and Side Chain Methyl Substitution Inhibiting Pancreatic Cancer Growth and Metastasis” (J Med Chem, 2025).
The source made the active and inactive calls. The calls are words filed in the database; no cut-off is given here.

Legend:
[1] = target: Vascular endothelial growth factor receptor 2 (Homo sapiens, UniProt P35968); test: Inhibition of KDR (unknown origin) by envision reader analysis
[2] = target: Tyrosine-protein kinase ABL1 (Homo sapiens) (UniProt P00519); test: Inhibition of ABL1 (unknown origin) by envision reader analysis
[3] = target: Fibroblast growth factor receptor (Homo sapiens) (UniProt P22607+P11362+P22455+P21802); test: Inhibition of FGFR (unknown origin) by envision reader analysis; assay type: protein assay
BXPC-3 [4] = test: Effect on AXL expression in human BXPC-3 cells; assay type: functional, cell-based
[5] = Antiproliferative activity against human HUVEC cells cultured as 3D tumor spheroids assessed as cell viability incubated for 72 hrs by CCK-8 assay; assay type: toxicity, cell-based
[6] = Antiproliferative activity against mouse NIH/3T3 cells cultured as 3D tumor spheroids assessed as cell viability incubated for 72 hrs by CCK-8 assay; assay type: toxicity, cell-based, NIH3T3
HUVEC [7] = test: Anti-angiogenesis activity in HUVEC assessed as reduction in tube formation at 0.5 to 2 uM incubated for 24 hrs by Calcein AM staining based light microscopic analysis; assay type: functional, cell-based; details: Homo sapiens, dose 0.5-2 µM
HUVEC [8] = test: Anti-angiogenesis activity in HUVEC assessed as reduction in number of vascular nodes at 0.5 to 2 uM incubated for 24 hrs by Calcein AM staining based light microscopic analysis; assay type: functional, cell-based; details: Homo sapiens, dose 0.5-2 µM
HUVEC [9] = test: Effect on VEGFR expression in HUVEC cells at 0.5 to 2 uM incubated for 24 to 72 hrs by immunofluorescence assay; assay type: functional, cell-based; details: Homo sapiens, dose 0.5-2 µM, time 24-72 hrs
HUVEC [10] = test: Inhibition of VEGFR phosphorylation in HUVEC cells at 0.5 to 2 uM incubated for 24 hrs by Western blot assay; assay type: cell-based; details: Homo sapiens, dose 0.5-2 µM
BXPC-3 [11] = test: Inhibition of colony formation in human BXPC-3 cells at 0.5 uM incubated for 72 hrs; assay type: functional, cell-based
MDA-MB-231 [12] = test: Effect on STAT3 level in human MDA-MB-231 cells incubated for 24 to 72 hrs by Western blot analysis; assay type: functional, cell-based; details: time 24-72 hrs
BXPC-3 [13] = test: Effect on STAT3 level in human BXPC-3 cells incubated for 24 to 72 hrs by Western blot analysis; assay type: functional, cell-based; details: time 24-72 hrs
BXPC-3 [14] = test: Antiproliferative activity against human BXPC-3 cells cultured as 3D tumor spheroids assessed as cell viability incubated for 7 days by CCK-8 assay; details: BXPC-3, 168 h
MDA-MB-231 [15] = details: Homo sapiens, MDA-MB-231, 168 h
BXPC-3 [16] = test: Induction of apoptosis in human BXPC-3 cells by annexin V-FITC/propidium iodide staining-based flow cytometry analysis; assay type: functional, cell-based
MDA-MB-231 [17] = test: Induction of apoptosis in human MDA-MB-231 cells by annexin V-FITC/propidium iodide staining-based flow cytometry analysis; assay type: functional, cell-based
Mitochondrial membrane = test: Induction of mitochondrial membrane potential depolarization in human MDA-MB-231 cells at 0.2 to 0.5 uM incubated for 24 hrs by JC-1 staining based flow cytometry analysis; assay type: cell membranes; details: dose 0.2-0.5 µM
BXPC-3 [18] = test: Induction of apoptosis in human BXPC-3 cells assessed as decrease in Bcl-2 expression at 0.1 to 1 uM incubated for 24 hrs by Western blot analysis; assay type: functional, cell-based; details: dose 0.1-1 µM
BXPC-3 [19] = test: Inhibition of cell migration in human BXPC-3 cells assessed as decrease in cell migration incubated for 24 hrs by wound healing assay; assay type: functional, cell-based
BXPC-3 [20] = test: Effect on E-cadherin expression in TGF-beta induced human BXPC-3 cells at 0.1 to 0.5 uM incubated for 24 hrs by immunofluorescence assay; assay type: functional, cell-based; details: dose 0.1-0.5 µM
MDA-MB-231 [21] = test: Effect on N-cadherin expression in TGF-beta induced human MDA-MB-231 cells at 0.1 to 0.5 uM incubated for 24 hrs by immunofluorescence assay; assay type: functional, cell-based; details: dose 0.1-0.5 µM
[22] = Toxicity in mouse implanted with human BXPC-3 cells assessed as body weight loss at 25 to 50 mg/kg, po measured on day 11; assay type: organism-based; details: in vivo, 264 h, dose 25-50 mg/kg, time 11 day
[23] = Toxicity in mouse implanted with human BXPC-3 cells assessed as kidney damage at 50 mg/kg, po by H and E staining based analysis; assay type: organism-based; details: in vivo
[24] = Cytotoxicity against human HK-2 cells assessed as inhibition of cell growth; assay type: toxicity, cell-based
[25] = Cytotoxicity against human HaCaT cells assessed as inhibition of cell growth; assay type: toxicity, cell-based
[26] = Tmax in Sprague-Dawley rat at 50 mg/kg, po; assay type: ADME, organism-based; details: in vivo
[27] = Cmax in Sprague-Dawley rat at 50 mg/kg, po; assay type: ADME, organism-based; details: in vivo
[28] = Half life in Sprague-Dawley rat at 5 mg/kg, iv; assay type: ADME, organism-based; details: in vivo
[29] = Half life in Sprague-Dawley rat at 50 mg/kg, po; assay type: ADME, organism-based; details: in vivo
[30] = Clearance in Sprague-Dawley rat at 5 mg/kg, iv; assay type: ADME, organism-based; details: in vivo
[31] = Volume of distribution at steady state in Sprague-Dawley rat at 5 mg/kg, iv; assay type: ADME, organism-based; details: in vivo, read-out: Vdss
BXPC-3 [32] = test: cells; details: Homo sapiens, BXPC-3, 72 h
Description: Antiproliferative activity against human BXPC-3 cells assessed as cell viability incubated for 72 hrs by MTT assay

MKN-45 = test: cells; details: Homo sapiens, MKN-45, 72 h
Description: Antiproliferative activity against human MKN-45 cells assessed as cell viability incubated for 72 hrs by MTT assay

NCI-H1975 = test: cells; details: Homo sapiens, NCI-H1975, 72 h
Description: Antiproliferative activity against human NCI-H1975 cells assessed as cell viability incubated for 72 hrs by MTT assay

A549 = test: cells; details: Homo sapiens, A549, 72 h
Description: Antiproliferative activity against human A549 cells assessed as cell viability incubated for 72 hrs by MTT assay

A549/TR = test: cells; details: Homo sapiens, 72 h
Description: Antiproliferative activity against human A549/Taxol cells assessed as cell viability incubated for 72 hrs by MTT assay

[33] = tested on: Osimertinib-resistant NCI-H1975 cell; test: cells; details: Homo sapiens, 72 h

Sequence of Fibroblast growth factor receptor (Homo sapiens) (P11362 whole entry, looked up): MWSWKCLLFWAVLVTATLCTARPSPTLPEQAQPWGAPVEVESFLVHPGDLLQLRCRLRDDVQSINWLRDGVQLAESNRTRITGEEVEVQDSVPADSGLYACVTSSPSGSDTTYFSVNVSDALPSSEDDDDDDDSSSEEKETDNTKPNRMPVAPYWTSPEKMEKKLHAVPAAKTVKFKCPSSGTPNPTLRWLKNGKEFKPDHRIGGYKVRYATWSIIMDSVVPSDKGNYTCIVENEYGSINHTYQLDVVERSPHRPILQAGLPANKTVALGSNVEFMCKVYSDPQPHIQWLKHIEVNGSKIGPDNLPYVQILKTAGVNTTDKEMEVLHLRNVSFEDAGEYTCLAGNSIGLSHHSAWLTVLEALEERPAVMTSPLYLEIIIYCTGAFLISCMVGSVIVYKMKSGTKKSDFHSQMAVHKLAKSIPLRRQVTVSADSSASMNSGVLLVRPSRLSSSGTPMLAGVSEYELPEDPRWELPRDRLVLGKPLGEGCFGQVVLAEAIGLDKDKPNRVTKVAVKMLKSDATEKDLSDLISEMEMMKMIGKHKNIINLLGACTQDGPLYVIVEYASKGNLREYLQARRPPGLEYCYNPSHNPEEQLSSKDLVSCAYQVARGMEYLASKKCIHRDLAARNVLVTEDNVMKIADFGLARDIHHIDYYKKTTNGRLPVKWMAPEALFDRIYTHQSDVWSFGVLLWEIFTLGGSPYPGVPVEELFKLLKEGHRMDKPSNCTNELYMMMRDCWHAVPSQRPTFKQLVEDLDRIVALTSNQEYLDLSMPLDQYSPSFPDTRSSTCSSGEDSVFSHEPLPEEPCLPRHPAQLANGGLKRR
Sequence of Fibroblast growth factor receptor (Homo sapiens) (P21802 whole entry, looked up): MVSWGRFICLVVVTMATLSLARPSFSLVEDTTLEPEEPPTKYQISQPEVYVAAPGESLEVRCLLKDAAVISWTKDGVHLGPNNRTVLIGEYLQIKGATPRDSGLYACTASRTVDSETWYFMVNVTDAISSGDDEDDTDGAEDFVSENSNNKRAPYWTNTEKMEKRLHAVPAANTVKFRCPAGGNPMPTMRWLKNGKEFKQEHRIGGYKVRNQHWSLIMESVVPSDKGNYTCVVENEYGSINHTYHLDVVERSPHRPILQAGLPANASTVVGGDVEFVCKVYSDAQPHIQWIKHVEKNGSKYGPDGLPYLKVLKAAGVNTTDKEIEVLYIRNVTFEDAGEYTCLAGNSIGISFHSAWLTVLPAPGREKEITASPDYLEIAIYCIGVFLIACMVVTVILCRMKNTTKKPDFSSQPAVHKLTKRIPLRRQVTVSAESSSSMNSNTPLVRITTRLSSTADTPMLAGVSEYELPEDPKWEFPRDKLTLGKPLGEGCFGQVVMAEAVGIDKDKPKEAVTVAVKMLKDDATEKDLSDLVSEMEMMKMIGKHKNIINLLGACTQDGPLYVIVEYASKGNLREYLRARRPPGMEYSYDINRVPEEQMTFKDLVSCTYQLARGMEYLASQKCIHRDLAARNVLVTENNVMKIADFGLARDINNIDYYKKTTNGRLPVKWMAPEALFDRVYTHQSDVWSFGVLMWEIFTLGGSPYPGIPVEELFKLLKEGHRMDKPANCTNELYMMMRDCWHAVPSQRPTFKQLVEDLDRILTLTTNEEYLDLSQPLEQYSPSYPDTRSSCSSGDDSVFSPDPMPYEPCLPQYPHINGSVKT
Sequence of Fibroblast growth factor receptor (Homo sapiens) (P22455 whole entry, looked up): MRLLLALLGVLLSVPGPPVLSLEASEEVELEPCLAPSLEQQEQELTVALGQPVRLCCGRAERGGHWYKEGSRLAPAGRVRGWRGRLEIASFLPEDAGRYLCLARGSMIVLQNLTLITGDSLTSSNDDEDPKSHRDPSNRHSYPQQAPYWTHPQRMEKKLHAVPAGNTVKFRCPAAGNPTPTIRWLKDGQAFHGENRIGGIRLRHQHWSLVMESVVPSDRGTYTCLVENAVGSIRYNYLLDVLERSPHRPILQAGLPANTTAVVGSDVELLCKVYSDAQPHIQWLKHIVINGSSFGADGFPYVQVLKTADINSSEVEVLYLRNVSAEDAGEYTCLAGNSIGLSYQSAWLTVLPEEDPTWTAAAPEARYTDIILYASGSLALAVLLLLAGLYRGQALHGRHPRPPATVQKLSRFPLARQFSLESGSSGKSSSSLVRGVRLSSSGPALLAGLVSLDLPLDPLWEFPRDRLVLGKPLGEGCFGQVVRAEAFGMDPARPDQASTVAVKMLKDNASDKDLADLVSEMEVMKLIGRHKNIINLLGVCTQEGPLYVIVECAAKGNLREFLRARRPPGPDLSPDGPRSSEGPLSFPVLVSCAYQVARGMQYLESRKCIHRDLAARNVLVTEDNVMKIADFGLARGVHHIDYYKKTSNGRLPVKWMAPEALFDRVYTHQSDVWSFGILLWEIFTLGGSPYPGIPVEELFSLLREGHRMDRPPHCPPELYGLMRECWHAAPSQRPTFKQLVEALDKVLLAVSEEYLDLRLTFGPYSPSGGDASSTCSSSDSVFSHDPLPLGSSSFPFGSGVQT
Sequence of Fibroblast growth factor receptor (Homo sapiens) (P22607 whole entry, looked up): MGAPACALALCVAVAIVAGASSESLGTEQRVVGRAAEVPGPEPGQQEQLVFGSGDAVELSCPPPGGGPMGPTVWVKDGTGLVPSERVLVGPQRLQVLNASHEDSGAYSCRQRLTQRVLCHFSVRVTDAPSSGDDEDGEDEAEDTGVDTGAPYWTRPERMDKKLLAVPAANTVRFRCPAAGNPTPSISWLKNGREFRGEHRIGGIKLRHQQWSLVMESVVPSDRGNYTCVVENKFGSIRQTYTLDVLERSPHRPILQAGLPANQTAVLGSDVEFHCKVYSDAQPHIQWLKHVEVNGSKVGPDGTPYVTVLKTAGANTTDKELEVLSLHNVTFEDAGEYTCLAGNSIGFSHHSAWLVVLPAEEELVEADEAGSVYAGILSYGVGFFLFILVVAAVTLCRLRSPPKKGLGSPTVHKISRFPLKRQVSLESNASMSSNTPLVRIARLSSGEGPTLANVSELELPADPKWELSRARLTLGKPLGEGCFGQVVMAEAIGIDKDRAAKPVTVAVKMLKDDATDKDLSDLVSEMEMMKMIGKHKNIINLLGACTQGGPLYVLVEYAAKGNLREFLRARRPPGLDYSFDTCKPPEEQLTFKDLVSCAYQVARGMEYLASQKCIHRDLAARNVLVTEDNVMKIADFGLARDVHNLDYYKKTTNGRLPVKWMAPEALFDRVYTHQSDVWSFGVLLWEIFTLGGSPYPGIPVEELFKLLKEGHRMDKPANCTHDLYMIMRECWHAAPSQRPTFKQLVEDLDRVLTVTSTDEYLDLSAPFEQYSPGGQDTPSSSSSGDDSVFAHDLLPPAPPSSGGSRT
Sequence of Tyrosine-protein kinase ABL1 (Homo sapiens) (P00519 whole entry): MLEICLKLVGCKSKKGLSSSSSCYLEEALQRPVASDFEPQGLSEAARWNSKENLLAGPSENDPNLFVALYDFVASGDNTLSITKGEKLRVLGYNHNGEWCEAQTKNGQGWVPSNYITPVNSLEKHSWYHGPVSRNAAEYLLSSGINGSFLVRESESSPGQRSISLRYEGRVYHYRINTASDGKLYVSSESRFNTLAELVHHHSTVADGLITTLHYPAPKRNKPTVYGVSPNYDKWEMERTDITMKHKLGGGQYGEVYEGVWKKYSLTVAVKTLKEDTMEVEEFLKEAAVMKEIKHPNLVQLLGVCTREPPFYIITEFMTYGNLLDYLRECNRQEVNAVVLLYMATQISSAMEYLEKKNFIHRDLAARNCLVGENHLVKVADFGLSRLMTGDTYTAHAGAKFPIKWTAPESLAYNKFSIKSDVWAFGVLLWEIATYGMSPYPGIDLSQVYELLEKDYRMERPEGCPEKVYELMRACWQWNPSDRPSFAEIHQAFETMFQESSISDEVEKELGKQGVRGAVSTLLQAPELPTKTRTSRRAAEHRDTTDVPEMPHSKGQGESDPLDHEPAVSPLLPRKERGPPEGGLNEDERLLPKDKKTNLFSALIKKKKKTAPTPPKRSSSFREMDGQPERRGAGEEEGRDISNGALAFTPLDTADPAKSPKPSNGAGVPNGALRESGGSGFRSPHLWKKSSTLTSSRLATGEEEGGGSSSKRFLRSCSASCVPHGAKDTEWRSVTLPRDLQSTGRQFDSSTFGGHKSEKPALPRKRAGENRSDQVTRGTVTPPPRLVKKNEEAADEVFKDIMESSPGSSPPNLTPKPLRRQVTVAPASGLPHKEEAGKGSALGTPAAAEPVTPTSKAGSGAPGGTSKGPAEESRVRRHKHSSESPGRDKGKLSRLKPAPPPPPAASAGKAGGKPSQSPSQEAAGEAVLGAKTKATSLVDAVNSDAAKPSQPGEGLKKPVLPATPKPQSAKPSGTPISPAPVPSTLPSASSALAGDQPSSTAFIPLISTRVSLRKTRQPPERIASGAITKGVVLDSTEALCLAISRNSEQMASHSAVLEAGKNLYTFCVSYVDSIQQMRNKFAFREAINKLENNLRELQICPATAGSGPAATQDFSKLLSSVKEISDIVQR

With `CCN1CCN(C(C)C(=O)N(C)c2ccc(N/C(=C3\C(=O)Nc4cc(Cl)ccc43)c3ccccc3)cc2)CC1` (racemic) the IC50 [1] was 0.00152 µM, the inhibition [2] was “Active” and the inhibition [3] was “Active”. The Activity (BXPC-3 [4]) was “Active”, the IC50 at 72 h [5] was 1.54 µM and the IC50 at 72 h [6] was 2.31 µM. For the same compound, the Activity (HUVEC [7]) was “Active”, the Activity (HUVEC [8]) was “Active” and the Activity (HUVEC [9]) was “Active”. For the same compound, the inhibition (HUVEC [10]) was “Active”, the inhibition (BXPC-3 [11]) was “Active” and the Activity (MDA-MB-231 [12]) was “inactive”. For the same compound, the Activity (BXPC-3 [13]) was “Active”, the IC50 (BXPC-3 [14]) was 1.62 µM and the IC50 (MDA-MB-231 [15]) was 2.22 µM. The Activity (BXPC-3 [16]) was “Active”, the Activity (MDA-MB-231 [17]) was “Active” and the Activity (Mitochondrial membrane) was “Active”. For the same compound, the Activity (BXPC-3 [18]) was “Active”, the inhibition (BXPC-3 [19]) was “Active” and the Activity (BXPC-3 [20]) was “Active”. The Activity (MDA-MB-231 [21]) was “Active”, the Activity [22] was “Non-toxic” and the Activity [23] was “Non-toxic”. For the same compound, the IC50 [24] was 8.35 µM, the IC50 [25] was over 10 µM and the Tmax [26] was 8 h. For the same compound, the Cmax [27] was 88 ng/mL, the half-life [28] was 4.36 h and the half-life [29] was 18.8 h. It also gave a clearance [30] of 46.5 mL/min/kg, a Vd [31] of 12.8 L/kg and an IC50 (BXPC-3 [32]) of 1.01 µM. For the same compound, the IC50 (MKN-45) was 1.26 µM, the IC50 (NCI-H1975) was 4.38 µM and the IC50 (A549) was 0.25 µM. For the same compound, the IC50 (A549/TR) was 4.77 µM and the IC50 [33] was 1.12 µM.
